Here are results for 20 molecules from US6653321B1, “Naphthylsulfonic acids and related compounds as glucose uptake agonists” (Telik, Inc., priority 1999, dated 2003).

The test system of one test is 3T3 L1 fibroblasts. Briefly: Glucose transport activity (14C-2-deoxy-D-glucose uptake). The format is cell-based. The note with it: Mus musculus; differentiated 3T3 L1 cells, insulin 5.6 nM; concentration giving increase in glucose transport generally 150% of the vehicle control. The procedure: 3T3 L1 fibroblasts (ATCC) were grown in Dulbecco's modified Eagle's medium (DMEM) with 10% fetal bovine serum (FBS, medium). The cells were plated at a density of 3×10^4 cells/well in 24-well plates. Two days after confluence was reached, the cells were treated for 3 days with 0.5 mM isobutylmethylxanthine (IBMX), 1 μM dexamethasone, supplemented with 1.7 μM insulin. The cells were then transferred to medium with 1.7 μM insulin for 2 more days. The cells were maintained in medium for an additional 4 days. Finally the cells were serum starved overnight in 0.1% bovine serum albumin (BSA) in DMEM.
The following day, the culture medium was replaced with 150 mM NaCl, 1.7 mM KCl, 0.9 mM CaCl2, 1.47 mM K2HPO4 (pH 7.4) to which was added either the experimental compounds, or their vehicle (DMSO). Insulin or its vehicle (0.01% BSA) was diluted in the assay buffer (containing test compound or vehicle, respectively) to a final concentration of 5.6 nM. After incubation for 30 min at 37° C. 5 μCi/mL ^14C-2-[…]-D-glucose was added, and the incubation was continued for additional 30 min at 37° C. The cells were then washed 3 times with ice-cold PBS/20 mM glucose and […] in 250 μl of lysis buffer (50 mM HEPES pH 7.6, 1% Triton X-100) for 30 min at room temperature. Radioactivity in the lysate was quantified by scintillation counting.
Once ^14C-2-deoxy-D-glucose is transported into the cell it is not released. Glucose transport is, therefore, proportional to the amount of radioactivity in the lysate. The concentration of compound necessary to produce an increase in glucose transport greater than the sum of the standard deviation of the vehicle control plus the largest standard deviation of a test sample (generally 150% of the vehicle control) was recorded as the EC (effective concentration).

The target of test [1] is T1, β-kinase domain of the human insulin receptor (CKD) (Homo sapiens, UniProt P06213).
T1 construct: The complete β-kinase domain of the human insulin receptor (CKD); made in house
T1 sequence (P06213 980-1382 limits assumed): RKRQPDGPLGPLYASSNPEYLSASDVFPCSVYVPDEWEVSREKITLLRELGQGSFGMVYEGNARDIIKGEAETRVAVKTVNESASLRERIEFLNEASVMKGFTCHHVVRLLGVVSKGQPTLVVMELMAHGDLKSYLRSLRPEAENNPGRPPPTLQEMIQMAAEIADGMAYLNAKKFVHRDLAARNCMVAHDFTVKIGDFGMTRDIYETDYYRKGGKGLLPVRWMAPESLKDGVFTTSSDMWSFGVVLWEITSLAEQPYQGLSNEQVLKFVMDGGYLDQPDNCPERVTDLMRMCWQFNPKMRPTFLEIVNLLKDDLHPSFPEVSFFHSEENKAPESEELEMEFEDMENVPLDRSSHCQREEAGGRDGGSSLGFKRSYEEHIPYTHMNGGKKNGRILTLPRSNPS
The experiment in a line: 32P-Cytoplasmic Kinase Domain (CKD) autophosphorylation assay. The note with it: 32P incorporated into CKD band, percentage of the vehicle (DMSO) level; 10 minutes at room temperature; compound concentration not given. It is filed as biochemical. The procedure: The complete β-kinase domain of the human insulin receptor (CKD) was expressed in, and purified from, baculovirus. CKD (4.0 μg/mL), in a solution of 50 mM Tris.HCl, 2 mM MnCl2, 10 mM MgCl2 (50 μl final volume), was combined with […] ATP, and 5 μCi ^32P-ATP (3000 Ci/mmol.). A test compound, or the vehicle (DMSO), was added to a final DMSO concentration of 1%. The mixture was incubated for 10 minutes at room temperature. The reaction was terminated by the addition of 10 μl of 200 mM EDTA. A 30 μl volume was removed, mixed with 5 μl of 6×Laemmeli sodium dodecyl sulfate (SDS) treatment buffer, and heated to 94° C. for 5 minutes. A 20 μl aliquot was then run on an SDS-PAGE gel. The radioactivity incorporated into the CKD band is quantified by phosphorimaging of the gel, or scintillation counting of the excised bands.
The potency of a compound for increasing phosphorylation is expressed as a percentage of the vehicle level.

As for `COc1cccc(C(=O)Nc2cc(C(=O)Nc3cccc4cc(S(=O)(=O)O)ccc34)cc(C(=O)Nc3cccc4cc(S(=O)(=O)O)ccc34)c2)c1` [Compound 13, 5-({3-[(3-methoxyphenyl)carbonylamino]-5-[N-(6-sulfonaphthyl)carbamoyl]phenyl}carbonylamino)naphthalene-2-sulfonic acid], the EC50 with 3T3 L1 fibroblasts came to 200 µM. The “Activity (% Control)” value in test [1] came to 83.7 % Control. In the case of `O=C(Nc1cc(C(=O)Nc2cccc3cc(S(=O)(=O)O)ccc23)cc(C(=O)Nc2cccc3cc(S(=O)(=O)O)ccc23)c1)c1cccc([N+](=O)[O-])c1` [Compound 15, 5-({3-[(3-nitrophenyl)carbonylamino]-5-[N-(6-sulfonaphthyl)carbamoyl]phenyl}carbonylamino)naphthalene-2-sulfonic acid], it took 240 µM to reach a half-maximal effect in the test with 3T3 L1 fibroblasts (EC50). For the same molecule, in test [1], the “Activity (% Control)” value came to 88.2 % Control. With `O=C(Nc1cc(C(=O)Nc2cccc3cc(S(=O)(=O)O)ccc23)cc(C(=O)Nc2cccc3cc(S(=O)(=O)O)ccc23)c1)c1ccc(Cl)cc1` [Compound 19, 5-({3-[(4-chlorophenyl)carbonylamino]-5-[N-(6-sulfonaphthyl)carbamoyl]phenyl}carbonylamino)naphthalene-2-sulfonic acid], a half-maximal response with 3T3 L1 fibroblasts (EC50) required 150 µM. For the same molecule, in test [1], the “Activity (% Control)” value came to 99 % Control. As for `O=C(Nc1cccc2cc(S(=O)(=O)O)ccc12)c1cc(NC(=O)C2CCCCC2)cc(C(=O)Nc2cccc3cc(S(=O)(=O)O)ccc23)c1` [Compound 33, 5-({3-(cyclohexylcarbonylamino)-5-[N-(6-sulfonaphthyl)carbamoyl]phenyl}carbonylamino)naphthalene-2-sulfonic acid], the “Activity (% Control)” value in test [1] is listed as 122.5 % Control. For the molecule `O=C(CC(C(=O)O)c1ccccc1)Nc1cc(C(=O)Nc2cccc3cc(S(=O)(=O)O)ccc23)cc(C(=O)Nc2cccc3cc(S(=O)(=O)O)ccc23)c1` (centres unmarked) [Compound 28, 3-(N-{3,5-bis[N-(6-sulfonaphthyl)carbamoyl]phenyl}carbamoyl)-2-phenylpropanoic acid], the “Activity (% Control)” value in test [1] was determined as 84.6 % Control. Same read-out and setting: the figure for `COc1ccccc1NC(=O)Nc1cc(C(=O)Nc2cccc3cc(S(=O)(=O)O)ccc23)cc(C(=O)Nc2cccc3cc(S(=O)(=O)O)ccc23)c1` [Compound 63, 5-[(3-{[(2-methoxyphenyl)amino]carbonylamino}-5-[N-(6-sulfonaphthyl)carbamoyl]phenyl)carbonylamino]naphthalene-2-sulfonic acid] is 94.4 % Control. Same read-out and setting: as for `O=C(O)c1ccc(C(=O)Nc2cc(C(=O)Nc3cccc4cc(S(=O)(=O)O)ccc34)cc(C(=O)Nc3cccc4cc(S(=O)(=O)O)ccc34)c2)cc1` [Compound 31, 4-(N-{3,5-bis[N-(6-sulfonaphthyl)carbamoyl]phenyl}carbamoyl)benzoic acid], the figure is 159.2 % Control; as for `O=C(Nc1cc(C(=O)Nc2cccc3cc(S(=O)(=O)O)ccc23)cc(C(=O)Nc2cccc3cc(S(=O)(=O)O)ccc23)c1)c1cccnc1` [Compound 36, 5-({3-(3-pyridylcarbonylamino)-5-[N-(6-sulfonaphthyl)carbamoyl]phenyl}carbonylamino)naphthalene-2-sulfonic acid], 123.2 % Control; as for `Cc1ccc(NC(=O)Nc2cc(C(=O)Nc3cccc4cc(S(=O)(=O)O)ccc34)cc(C(=O)Nc3cccc4cc(S(=O)(=O)O)ccc34)c2)cc1` [Compound 62, 5-[(3-{[(4-methylphenyl)amino]carbonylamino}-5-[N-(6-sulfonaphthyl)carbamoyl]phenyl)carbonylamino]naphthalene-2-sulfonic acid], 102.8 % Control. Still for that read-out and setting: as for `O=C(O)CC(C(=O)Nc1cc(C(=O)Nc2cccc3cc(S(=O)(=O)O)ccc23)cc(C(=O)Nc2cccc3cc(S(=O)(=O)O)ccc23)c1)c1ccccc1` (centres unmarked) [Compound 27, 3-(N-{3,5-bis[N-(6-sulfonaphthyl)carbamoyl]phenyl}carbamoyl)-3-phenylpropanoic acid], the figure is 161.2 % Control.

Regarding `O=C(Nc1cc(C(=O)Nc2cccc3cc(S(=O)(=O)O)ccc23)cc(C(=O)Nc2cccc3cc(S(=O)(=O)O)ccc23)c1)c1ccncc1` [Compound 35, 5-({3-(4-pyridylcarbonylamino)-5-[N-(6-sulfonaphthyl)carbamoyl]phenyl}carbonylamino)naphthalene-2-sulfonic acid], the “Activity (% Control)” value in test [1] is on record as 105.9 % Control. On to `Cc1ccc(S(=O)(=O)Nc2cc(C(=O)Nc3cccc4cc(S(=O)(=O)O)ccc34)cc(C(=O)Nc3cccc4cc(S(=O)(=O)O)ccc34)c2)cc1` [Compound 53, 5-[(3-{[(4-methylphenyl)sulfonyl]amino}-5-[N-(6-sulfonaphthyl)carbamoyl]phenyl)carbonylamino]naphthalene-2-sulfonic acid], for which the “Activity (% Control)” value in test [1] was found to be 105.7 % Control. Same read-out and setting: the figure for `O=C(Nc1cccc2cc(S(=O)(=O)O)ccc12)c1cc(NS(=O)(=O)Cc2ccccc2)cc(C(=O)Nc2cccc3cc(S(=O)(=O)O)ccc23)c1` [Compound 56, 5-[(5-{[benzylsulfonyl]amino}-3-[N-(6-sulfonaphthyl)carbamoyl]phenyl)carbonylamino]naphthalene-2-sulfonic acid] is 102.4 % Control; for `O=C(COc1ccccc1)Nc1cc(C(=O)Nc2cccc3cc(S(=O)(=O)O)ccc23)cc(C(=O)Nc2cccc3cc(S(=O)(=O)O)ccc23)c1` [Compound 38, 5-({3-(2-phenoxyacetylamino)-5-[N-(6-sulfonaphthyl)carbamoyl]phenyl}carbonylamino)naphthalene-2-sulfonic acid] it is 84.7 % Control; for `COc1ccc(NC(=O)Nc2cc(C(=O)Nc3cccc4cc(S(=O)(=O)O)ccc34)cc(C(=O)Nc3cccc4cc(S(=O)(=O)O)ccc34)c2)cc1` [Compound 65, 5-[(3-{[(4-methoxyphenyl)amino]carbonylamino}-5-[N-(6-sulfonaphthyl)carbamoyl]phenyl)carbonylamino]naphthalene-2-sulfonic acid] it is 85.9 % Control.

Take `O=C(Nc1cccc2cc(S(=O)(=O)O)ccc12)c1cc(NS(=O)(=O)c2cccc3ccccc23)cc(C(=O)Nc2cccc3cc(S(=O)(=O)O)ccc23)c1` [Compound 54, 5-({3-[(1-naphthylsulfonyl)amino]-5-[N-(6-sulfonaphthyl)carbamoyl]phenyl}carbonylamino)naphthalene-2-sulfonic acid]: the “Activity (% Control)” value in test [1] is on record as 46.5 % Control.

For `O=C(Nc1cccc2cc(S(=O)(=O)O)ccc12)c1cc(NC(=O)c2ccco2)cc(C(=O)Nc2cccc3cc(S(=O)(=O)O)ccc23)c1` [Compound 34, 5-({3-(2-furylcarbonylamino)-5-[N-(6-sulfonaphthyl)carbamoyl]phenyl}carbonylamino)naphthalene-2-sulfonic acid], the “Activity (% Control)” value in test [1] worked out at 119.5 % Control. For `O=C(Nc1cc(C(=O)Nc2cccc3cc(S(=O)(=O)O)ccc23)cc(C(=O)Nc2cccc3cc(S(=O)(=O)O)ccc23)c1)c1ccc(F)cc1` [Compound 12, 5-({3-[(4-fluorophenyl)carbonylamino]-5-[N-(6-sulfonaphthyl)carbamoyl]phenyl}carbonylamino)naphthalene-2-sulfonic acid], the “Activity (% Control)” value in test [1] is 88.6 % Control. Turning to `O=C(Nc1cc(C(=O)Nc2cccc3cc(S(=O)(=O)O)ccc23)cc(C(=O)Nc2cccc3cc(S(=O)(=O)O)ccc23)c1)c1ccc([N+](=O)[O-])cc1` [Compound 14, 5-({3-[(4-nitrophenyl)carbonylamino]-5-[N-(6-sulfonaphthyl)carbamoyl]phenyl}carbonylamino)naphthalene-2-sulfonic acid], the “Activity (% Control)” value in test [1] was 81.7 % Control. Regarding `O=C(Nc1cccc2cc(S(=O)(=O)O)ccc12)c1cc(NS(=O)(=O)c2ccc(Cl)cc2)cc(C(=O)Nc2cccc3cc(S(=O)(=O)O)ccc23)c1` [Compound 50, 5-[(3-{[(4-chlorophenyl)sulfonyl]amino}-5-[N-(6-sulfonaphthyl)carbamoyl]phenyl)carbonylamino]naphthalene-2-sulfonic acid], the “Activity (% Control)” value in test [1] is given as 123.8 % Control.

The EC50 is the concentration that produces a half-maximal response. A higher EC50 goes with a need for much substance.
